Reference: publication PMC12067438 (Journal of Medicinal Chemistry, 2025)

Tests used:
[1] = system: global proteome of H1792 SMARCA4-WT cell line; test: Quantitative TMT mass spectrometry of global proteome; format: cell-based, human; settings: 100 nM YDR1 48 h, 20 nM YD54 24 h
[2] = Mouse liver microsomal stability assay; format: in vitro ADME; settings: for remaining (T = 60 min): mouse microsomal assay, with NADPH; for CLint scaled at 1 h / half-life at 1 h / microsomal CLint at 1 h: mouse, liver microsomes
[3] = system: HCC515 xenograft model (SMARCA4 mutant); test: HCC515 xenograft antitumor efficacy; format: in vivo, mouse; settings: 5 mg/kg once daily, 19 days, 1% Tween 80 formulation
[4] = system: YAP1; test: YAP1 phosphorylation immunoblot in H322 cells; format: cell-based, human; settings: H322 SMARCA4 mutant cells, 96 h; 1 µM YDR1, 0.1 µM YD54
[5] = system: H2030 xenograft model (SMARCA4 mutant); test: H2030 xenograft antitumor efficacy; format: in vivo, mouse; settings: 5 mg/kg once daily, 17 days, 1% Tween 80 formulation
[6] = Plasma pharmacokinetics after single oral or intraperitoneal dose; format: in vivo, mouse; settings: for Oral bioavailability (in words): 25 mg/kg oral, mice
[7] = system: H2023 xenograft model (SMARCA4 mutant); test: H2023 xenograft antitumor efficacy; format: in vivo, mouse; settings: 5 mg/kg once daily, 19 days
[8] = Human liver microsomal stability assay; format: in vitro ADME; settings: for remaining (T = 60 min): with NADPH
[9] = system: H1568 xenograft model (SMARCA4 mutant); test: H1568 xenograft antitumor efficacy; format: in vivo, mouse; settings: 40 mg/kg once daily, 13 days
[10] = 21-day tolerability in mice; format: in vivo, mouse
[11] = target: SMARCA4 (Mus musculus, UniProt Q3TKT4); test: PK/PD study: SMARCA4 in spleen by Western blot; format: in vivo; settings: C57BL/6 and Crbn I391V mice, compared to SMARCA2
Chain of SMARCA4 (Q3TKT4 whole entry): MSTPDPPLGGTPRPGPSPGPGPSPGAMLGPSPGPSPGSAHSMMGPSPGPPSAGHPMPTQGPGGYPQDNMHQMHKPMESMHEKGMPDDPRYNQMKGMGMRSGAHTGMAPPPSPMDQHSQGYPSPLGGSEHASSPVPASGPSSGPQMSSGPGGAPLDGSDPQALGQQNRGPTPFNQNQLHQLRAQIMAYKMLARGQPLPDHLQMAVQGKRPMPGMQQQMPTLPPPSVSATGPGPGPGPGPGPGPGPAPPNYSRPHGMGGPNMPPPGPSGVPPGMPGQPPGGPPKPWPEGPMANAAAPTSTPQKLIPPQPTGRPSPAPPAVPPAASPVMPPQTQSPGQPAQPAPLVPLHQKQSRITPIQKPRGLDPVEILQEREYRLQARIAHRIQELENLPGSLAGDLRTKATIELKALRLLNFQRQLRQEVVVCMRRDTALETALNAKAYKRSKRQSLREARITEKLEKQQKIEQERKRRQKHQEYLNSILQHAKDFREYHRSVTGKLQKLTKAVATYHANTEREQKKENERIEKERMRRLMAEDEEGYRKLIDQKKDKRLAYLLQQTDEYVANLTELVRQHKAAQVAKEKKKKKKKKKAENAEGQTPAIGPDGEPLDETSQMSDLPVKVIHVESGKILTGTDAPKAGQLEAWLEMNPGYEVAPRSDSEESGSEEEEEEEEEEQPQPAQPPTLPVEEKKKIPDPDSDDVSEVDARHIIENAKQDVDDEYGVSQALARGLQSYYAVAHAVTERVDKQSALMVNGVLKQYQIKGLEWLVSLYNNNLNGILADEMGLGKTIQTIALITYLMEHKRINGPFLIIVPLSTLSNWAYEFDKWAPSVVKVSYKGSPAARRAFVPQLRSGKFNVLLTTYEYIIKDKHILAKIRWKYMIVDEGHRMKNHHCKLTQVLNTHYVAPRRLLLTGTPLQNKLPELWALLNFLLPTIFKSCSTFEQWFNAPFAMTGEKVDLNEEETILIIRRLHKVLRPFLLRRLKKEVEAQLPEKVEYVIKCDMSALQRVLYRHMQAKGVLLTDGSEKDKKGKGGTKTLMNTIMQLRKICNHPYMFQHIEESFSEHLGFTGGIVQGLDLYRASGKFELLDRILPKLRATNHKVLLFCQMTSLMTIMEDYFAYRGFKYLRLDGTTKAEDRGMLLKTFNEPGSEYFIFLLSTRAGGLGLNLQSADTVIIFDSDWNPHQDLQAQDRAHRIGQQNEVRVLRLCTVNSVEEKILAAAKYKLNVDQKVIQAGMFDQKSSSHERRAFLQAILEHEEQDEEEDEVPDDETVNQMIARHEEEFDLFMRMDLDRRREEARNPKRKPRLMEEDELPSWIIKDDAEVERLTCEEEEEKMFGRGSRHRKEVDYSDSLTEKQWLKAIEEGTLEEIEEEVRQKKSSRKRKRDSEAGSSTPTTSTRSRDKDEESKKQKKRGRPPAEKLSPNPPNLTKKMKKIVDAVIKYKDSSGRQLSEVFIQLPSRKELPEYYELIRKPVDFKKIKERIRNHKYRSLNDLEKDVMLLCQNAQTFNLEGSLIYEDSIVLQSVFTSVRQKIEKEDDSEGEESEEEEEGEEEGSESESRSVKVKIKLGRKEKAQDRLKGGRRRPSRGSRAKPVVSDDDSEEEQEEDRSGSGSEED

[12] = target: SMARCA2 (Homo sapiens, UniProt P51531); test: SMARCA2 protein levels in xenograft tumors by Western blot; format: in vivo; settings: H1568 xenograft efficacy study, 40 mg/kg once daily, 13 days
Chain of SMARCA2 (P51531 whole entry): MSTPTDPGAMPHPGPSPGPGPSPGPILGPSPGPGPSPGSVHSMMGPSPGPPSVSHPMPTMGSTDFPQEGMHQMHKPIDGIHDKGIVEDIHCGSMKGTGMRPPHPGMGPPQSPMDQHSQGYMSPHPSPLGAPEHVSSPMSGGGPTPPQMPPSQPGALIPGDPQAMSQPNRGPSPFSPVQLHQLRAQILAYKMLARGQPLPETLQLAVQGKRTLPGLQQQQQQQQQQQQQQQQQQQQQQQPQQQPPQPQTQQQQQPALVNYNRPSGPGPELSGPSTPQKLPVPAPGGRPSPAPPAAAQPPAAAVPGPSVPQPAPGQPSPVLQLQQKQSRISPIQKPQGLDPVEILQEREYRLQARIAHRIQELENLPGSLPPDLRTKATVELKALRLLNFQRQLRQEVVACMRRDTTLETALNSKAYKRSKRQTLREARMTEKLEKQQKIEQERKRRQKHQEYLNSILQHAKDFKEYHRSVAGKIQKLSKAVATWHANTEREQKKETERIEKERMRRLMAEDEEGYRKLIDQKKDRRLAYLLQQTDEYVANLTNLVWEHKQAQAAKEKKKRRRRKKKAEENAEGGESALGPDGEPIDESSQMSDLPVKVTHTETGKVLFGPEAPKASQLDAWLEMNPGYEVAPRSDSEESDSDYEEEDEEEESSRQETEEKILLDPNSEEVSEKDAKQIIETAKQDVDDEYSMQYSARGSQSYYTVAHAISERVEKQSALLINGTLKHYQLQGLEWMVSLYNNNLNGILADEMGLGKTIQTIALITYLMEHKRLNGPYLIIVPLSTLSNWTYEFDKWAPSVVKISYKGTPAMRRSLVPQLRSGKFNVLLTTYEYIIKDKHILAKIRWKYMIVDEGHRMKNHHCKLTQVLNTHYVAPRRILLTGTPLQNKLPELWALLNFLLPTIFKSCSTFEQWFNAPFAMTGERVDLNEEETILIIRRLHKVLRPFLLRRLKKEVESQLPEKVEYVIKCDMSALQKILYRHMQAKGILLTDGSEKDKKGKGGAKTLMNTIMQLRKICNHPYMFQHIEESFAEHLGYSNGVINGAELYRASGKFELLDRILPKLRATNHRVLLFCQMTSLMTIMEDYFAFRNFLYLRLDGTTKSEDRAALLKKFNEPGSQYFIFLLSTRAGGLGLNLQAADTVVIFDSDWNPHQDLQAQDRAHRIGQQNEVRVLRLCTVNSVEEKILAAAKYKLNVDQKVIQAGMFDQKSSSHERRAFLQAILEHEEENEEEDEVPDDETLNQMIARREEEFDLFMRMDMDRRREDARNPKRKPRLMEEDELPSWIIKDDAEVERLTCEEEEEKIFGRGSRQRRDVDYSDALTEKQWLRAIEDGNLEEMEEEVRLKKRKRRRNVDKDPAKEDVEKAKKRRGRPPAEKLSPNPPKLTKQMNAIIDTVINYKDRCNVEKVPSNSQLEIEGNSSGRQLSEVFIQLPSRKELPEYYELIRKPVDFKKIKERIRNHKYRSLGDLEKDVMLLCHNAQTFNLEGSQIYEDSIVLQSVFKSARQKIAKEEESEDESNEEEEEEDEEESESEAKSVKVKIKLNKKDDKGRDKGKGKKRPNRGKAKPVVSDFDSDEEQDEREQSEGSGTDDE

[13] = system: ERK; test: pERK immunoblot in H2030 cells; settings: sotorasib 0.5 µM, YDR1 or YD54 1.25 µM, 72 hours (YDR1), 48 hours (YD54)

Compound	SMARCA4 level in TMT proteomics [1]	remaining (T = 60 min) [2]	CLint scaled at 1 h [2] [mL/min/kg]	half-life at 1 h [2] [min]	microsomal CLint at 1 h [2] [µL/min/mg]	Phosphorylation of YAP1 at S109 [4]	Phosphorylation of YAP1 at S127 [4]	Oral bioavailability (in words) [6]	Clearance class in human microsomal assays ([8]; human microsomal assay)	remaining (T = 60 min) ([8]; human microsomal assay)	CLint scaled at 1 h ([8]; human, liver microsomes) [mL/min/kg]	also measured
Nc1nnc(-c2ccccc2O)cc1N1CCN(Cc2ccc(N3CCN(CCOc4cccc5c4C(=O)N(C4CCC(=O)NC4=O)C5=O)CC3)c(F)c2)CC1 (stereo not drawn) [YD54]	minimally altered	0.414	119	45.9	30.2	drastic increase	potent increase	orally bioavailable	moderate clearance	0.3234	35.8	reduction in body weight compared to controls [3]: < 20%; reduction in body weight compared to controls [5]: < 20%; reduction in body weight compared to controls [7]: < 10%; half-life at 1 h ([8]; human, liver microsomes, T1/2, human microsomal assay): 34.9 min
Nc1nnc(-c2ccccc2O)cc1N1CCN(Cc2ccc(N3CCC(CN4CCN(c5ccc6c(c5)C(=O)N(C5CCC(=O)NC5=O)C6=O)CC4)CC3)c(F)c2)CC1 (stereo not drawn) [YDR1]	minimally altered	0.4998	91.9	59.7	23.2	drastic increase	potent increase	robust oral bioavailability	slow clearance	0.4743	21.5	Tolerability in efficacy study [9]: well tolerated with no change in body weight; reduction in body weight compared to controls [9]: < 10%; Body weight and signs of toxicity ([10]; daily treatment up to 80 mg/kg for 21 days): minimal body weight loss and no obvious signs of toxicity or morbidity; Tolerability ([10]; daily treatment with increasing doses up to 80 mg/kg for 21 days): well tolerated; degradation of SMARCA4 in spleen [11]: only modestly degraded; half-life ([6]; CD-1, mouse, plasma, oral, 25 mg/kg): > 1440 min; degradation of SMARCA2 in tumors [12]: about 50%; T1/2 ([8]; human microsomal assay): 58.024 min; microsomal CLint at 1 h ([8]; human, liver microsomes): 23.9 µL/min/mg
C=CC(=O)N1CCN(c2nc(=O)n(-c3c(C)ccnc3C(C)C)c3nc(-c4c(O)cccc4F)c(F)cc23)[C@@H](C)C1 [sotorasib]												phosphorylation of ERK [13]: robustly reduced phosphorylation of ERK
